ChEMBL document CHEMBL1158093, “Isolation, structure elucidation, and biological evaluation of 15-amido-3-demethoxy-2alpha,3alpha-methylenedioxyerythroculine, a new alkaloid from Hyperbaena valida” (J Nat Prod, 2006)
Activity calls are given as the source filed them. No cut-off for these calls is given here.

Experiments:
[1] = target: Neuronal acetylcholine receptor; alpha3/beta4 (Rattus norvegicus) (UniProt P04757+P12392); assay: Agonist activity at rat alpha3beta4 nicotinic receptor expressed in KXalpha-3-beta-4R2 cells assessed as nicotine-induced calcium fluorescence; assay type: functional, cell-based
[2] = target: T1, Neuronal acetylcholine receptor; alpha3/beta4 (Rattus norvegicus, UniProt P04757+P12392); assay: Antagonist activity at rat alpha3beta4 nicotinic receptor expressed in KXalpha-3-beta-4R2 cells assessed as nicotine-induced calcium fluorescence; assay type: functional, cell-based
[3] = target: T1, Neuronal acetylcholine receptor; alpha3/beta4; assay: Activity at rat alpha3beta4 nicotinic receptor expressed in KXalpha-3-beta-4R2 cells assessed as nicotine-induced 86Rb+ efflux; assay type: cell-based

T1 sequence (P04757 whole entry): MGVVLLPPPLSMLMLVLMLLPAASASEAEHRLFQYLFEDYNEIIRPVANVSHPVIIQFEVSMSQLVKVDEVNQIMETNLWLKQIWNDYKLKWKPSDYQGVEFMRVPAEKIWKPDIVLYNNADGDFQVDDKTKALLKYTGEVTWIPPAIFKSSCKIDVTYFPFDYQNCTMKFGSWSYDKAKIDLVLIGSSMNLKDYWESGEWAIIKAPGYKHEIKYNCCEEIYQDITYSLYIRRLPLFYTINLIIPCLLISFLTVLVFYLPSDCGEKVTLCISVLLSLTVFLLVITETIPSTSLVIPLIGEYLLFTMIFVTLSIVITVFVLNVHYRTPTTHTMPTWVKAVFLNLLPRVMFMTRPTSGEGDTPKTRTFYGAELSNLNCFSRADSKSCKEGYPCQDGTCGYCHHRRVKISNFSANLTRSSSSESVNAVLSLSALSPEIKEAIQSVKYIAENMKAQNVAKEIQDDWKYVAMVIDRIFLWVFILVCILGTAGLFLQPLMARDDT
T1 sequence (P12392 whole entry): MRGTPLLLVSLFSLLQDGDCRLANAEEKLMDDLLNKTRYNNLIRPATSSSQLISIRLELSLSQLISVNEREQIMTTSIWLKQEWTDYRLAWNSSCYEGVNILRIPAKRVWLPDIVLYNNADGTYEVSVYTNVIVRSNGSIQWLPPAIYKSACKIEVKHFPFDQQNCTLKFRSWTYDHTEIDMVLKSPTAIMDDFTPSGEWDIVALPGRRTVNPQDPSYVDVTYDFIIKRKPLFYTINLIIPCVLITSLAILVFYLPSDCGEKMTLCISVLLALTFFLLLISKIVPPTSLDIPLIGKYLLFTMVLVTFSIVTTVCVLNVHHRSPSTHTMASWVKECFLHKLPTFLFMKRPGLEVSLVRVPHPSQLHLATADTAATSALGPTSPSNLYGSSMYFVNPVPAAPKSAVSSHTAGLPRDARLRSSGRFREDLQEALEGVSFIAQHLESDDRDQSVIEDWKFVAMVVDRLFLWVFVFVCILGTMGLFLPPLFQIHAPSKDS

| Activity [1] | IC50 [2] [µM] | Structure (SMILES) | IC50 [3] [µM] |
| --- | --- | --- | --- |
| inactive | 94 | COc1cc2c(cc1C(N)=O)[C@]13C[C@H]4OCO[C@H]4C=C1CCN3CC2 | – |
| – | – | CO[C@H]1CC=C2CCN3CCC4=C(CC(=O)OC4)[C@]23C1 | 100 |
| inactive | 77 | COC(=O)c1cc2c(cc1OC)CCN1CCC3=C[C@@H]4OCO[C@@H]4C[C@]321 | – |
